Measured values taken from patent US8183364B2, “Substituted porphyrins” (Duke University, priority 2004, dated 2012).

Assay: Electrochemistry: cyclic voltammetry of the Mn(III)/Mn(II) redox couple
Format: physicochemical
Conditions: for Metal-centered redox potential E1/2: Mn(III)/Mn(II), 0.1 M NaCl, 0.05 M phosphate buffer, pH 7.8, ±3 mV
Procedure: Electrochemistry. Measurements were performed on a CH Instruments Model 600 Voltammetric Analyzer (Spasojevic and Batinic-Haberle, Inorg. Chim. Acta. 317:230-242 (2001), Batinic-Haberle et al, J. Biol. Chem. 273:24521-24528 (1998), Batinic-Haberle et al, Inorg. Chem. 38:4011-4022 (1999)). A three-electrode system in a small volume cell (0.5 mL to 3 mL), with a 3 mm-diameter glassy carbon button working electrode (Bioanalytical Systems), plus the Ag/AgCl reference and Pt auxiliary electrodes was used. Argon-purged solutions contained 0.05 M phosphate buffer, pH 7.8, 0.1 M NaCl, and 0.5 mM metalloporphyrin. The scan rates were 0.01-0.5 V/s, typically 0.1 V/s. The potentials were standardized against the potassium ferrocyanide/ferricyanide (Kolthof and Tomsicek, J. Phys. Chem. 39:945 (1935)) and/or against MnTE-2-PyP^5+ (Spasojevic and Batinic-Haberle, Inorg. Chim. Acta. 317:230-242 (2001), Batinic-Haberle et al, J. Biol. Chem. 273:24521-24528 (1998), Batinic-Haberle et al, Inorg. Chem. 38:4011-4022 (1999)).
Electrochemistry. All cyclic voltammograms, ascribed to the Mn(III)/Mn(II) redox couple, are reversible. The E1/2 of di-ortho ethylimidazolylporphyrin, MnTDE-2-ImP^5+ is 118 mV more positive than of ortho ethylpyridylporphyrin, MnTE-2-PyP^5+ (+228 mV vs NHE), as a consequence of charge delocalization. A similar difference of 114 mV was seen between their methoxyethyl analogues. Mn porphyrins bearing N-pyridyl substituents of the same length, MnTnBu-PyP^5+ and MnTMOE-2-PyP^5+, have nearly identical E1/2 of +254 and +251 mV vs NHE, which is 26 and 23 mV higher than that of MnTE-PyP^5+.

SMILES	Metal-centered redox potential E1/2	E1/2 more positive / higher than that of MnTE-2-PyP^5+ (difference vs MnTE-2-PyP^5+ (+228 mV vs NHE))
COCC[n+]1ccccc1-c1c2nc(c(-c3cccc[n+]3CCOC)c3ccc([n-]3)c(-c3cccc[n+]3CCOC)c3nc(c(-c4cccc[n+]4CCOC)c4ccc1[n-]4)C=C3)C=C2.[Mn+3] [MnTMOE-2-PyP^5+, Mn(III) tetrakis 5,10,15,20-tetrakis[N-(2-methoxyethyl)pyridinium-2-yl]porphyrin]	+251 mV vs NHE	23 mV
COCCn1cc[n+](CCOC)c1-c1c2nc(c(-c3n(CCOC)cc[n+]3CCOC)c3ccc([n-]3)c(-c3n(CCOC)cc[n+]3CCOC)c3nc(c(-c4n(CCOC)cc[n+]4CCOC)c4ccc1[n-]4)C=C3)C=C2.[Mn+3] [MnTDMOE-2-ImP^5+, Mn(III) tetrakis 5,10,15,20-tetrakis[N,N′-di(2-methoxyethyl)imidazolium-2-yl]porphyrin]	+365 mV vs NHE	
